Reference: patent US20210330611A1, “THERAPY FOR NEUROLOGICAL DISEASES/DISORDERS” (priority 2020, published 2021)
Counter-ions that a name gives are not always drawn. Like-named read-outs stand apart in the source and are kept apart here.

Tests used:
[1] = tested on: fibrin- and LPS-induced microglia activation; test: cells; format: cell-based, rat
[2] = tested on: fibrin-induced microglia activation; test: Image-based assay of fibrin-induced microglia activation (HTS and dose response); format: cell-based, rat; conditions: for inhibition at 10 µM: read-out: Fibrin % inhibition
[3] = tested on: primary rat microglia; test: Cell toxicity (dead cells, size <150 μm2) in coated fibrin (cFib) assay;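 also: share of dead cells sized under 150 µm2 at 10 µM in fibrin-stimulated microglia HTS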
[4] = tested on: primary rat microglia; test: Cell toxicity (dead cells, size <150 μm2) in LPS assay
[5] = tested on: LPS-induced microglia activation; test: Image-based assay of LPS-induced microglia activation (HTS and dose response); format: cell-based, rat; conditions: for inhibition at 10 µM: read-out: LPS % inhibition
[6] = quadrant by fibrin and LPS inhibition in HTS of 1907 compounds
[7] = Rattus norvegicus, Microglia, primary microglia HTS, fibrin stimulation, increased cell size (>800 μm^2) as marker of activation
[8] = primary microglia HTS, fibrin stimulation, decreased size (<150 μm^2) as marker of toxicity
[9] = primary microglia HTS, LPS stimulation, decreased size (<150 μm^2) as marker of toxicity
[10] = Rattus norvegicus, Microglia, 48 h, primary microglia HTS, LPS stimulation, increased cell size (>800 μm^2) as marker of activation
[11] = HTS of 1907 compounds, quadrant by fibrin and LPS inhibition
[12] = primary microglia HTS, 10 μM, fibrin-stimulated, cell size >800 μm^2 as marker of activation
[13] = primary microglia HTS, 10 μM, fibrin assay, cell size <150 μm^2 as marker of toxicity
[14] = primary microglia HTS, 10 μM, LPS assay, cell size <150 μm^2 as marker of toxicity
[15] = primary microglia HTS, 10 μM, LPS-stimulated, cell size >800 μm^2 as marker of activation
[16] = Rattus norvegicus, Microglia, primary microglia HTS, 10 μM, fibrin-stimulated, cell size >800 μm^2 as marker of activation
[17] = Rattus norvegicus, Microglia, primary microglia HTS, 10 μM, LPS-stimulated, cell size >800 μm^2 as marker of activation
[18] = Rattus norvegicus, Microglia, primary microglia HTS, fibrin stimulation, activation = cell size >800 μm2
[19] = primary microglia HTS, fibrin stimulation, toxicity = cell size <150 μm2
[20] = primary microglia HTS, LPS stimulation, toxicity = cell size <150 μm2
[21] = Rattus norvegicus, Microglia, 48 h, primary microglia HTS, LPS stimulation, activation = cell size >800 μm2
[22] = Rattus norvegicus, Microglia, primary HTS, 10 μM, fibrin-stimulated primary microglia
[23] = primary HTS, 10 μM, fibrin assay, dead cells size <150 μm2
[24] = primary HTS, 10 μM, LPS assay, dead cells size <150 μm2
[25] = Rattus norvegicus, Microglia, primary HTS, 10 μM, LPS-stimulated primary microglia
[26] = primary microglia HTS, fibrin stimulation, increased cell size (>800 μm^2) as marker of activation
[27] = primary microglia HTS, LPS stimulation, increased cell size (>800 μm^2) as marker of activation

## C[C@]12CCC(=O)C=C1CC[C@@H]1[C@@H]2CC[C@@]2(C)[C@H]1CC[C@]2(C)O [Methyltestosterone]
[1]; [6]
  Quadrant (FIG. 5b): Q4
[2]; [7]
  inhibition at 10 µM: -40%
[3]; [8]
  Fibrin % cell toxicity: 1%
[4]; [9]
  LPS % cell toxicity: 0%
[5]; [10]
  inhibition at 10 µM: -2%

## CC1=C(CC(=O)O)c2cc(F)ccc2/C1=C\c1ccc(S(C)(=O)=O)cc1 [Sulindac Sulfone]
[1]; [11]
  Quadrant (FIG. 5b): Q4
[2]; [12]
  Fibrin % inhibition: −27%
[3]; [13]
  Fibrin % cell toxicity: 1%
[4]; [14]
  LPS % cell toxicity: 0%
[5]; [15]
  LPS % inhibition: 3%

## O=c1oc2cc(O)ccc2s1 [Thioxolone, Tioxolone]
[1]; [11]
  Quadrant (FIG. 5b): Q4
[2]; [12]
  Fibrin % inhibition: −18%
[3]; [13]
  Fibrin % cell toxicity: 0%
[4]; [14]
  LPS % cell toxicity: 0%
[5]; [15]
  LPS % inhibition: 12%

## C[C@]12Cc3c[nH]nc3C[C@@H]1CC[C@@H]1[C@@H]2CC[C@@]2(C)[C@H]1CC[C@]2(C)O [Stanozolol]
[1]; [11]
  Quadrant (FIG. 5b): Q4
[2]; [16]
  inhibition at 10 µM: -5%
[3]; [13]
  Fibrin % cell toxicity: 1%
[4]; [14]
  LPS % cell toxicity: 1%
[5]; [17]
  inhibition at 10 µM: 33%

## CNC(=O)c1c(I)c(NC(C)=O)c(I)c(C(=O)O)c1I [Iothalamic Acid]
[1]; [6]
  Quadrant (FIG. 5b): Q4
[2]; [18]
  inhibition at 10 µM: 5%
[3]; [19]
  Fibrin % cell toxicity: 1%
[4]; [20]
  LPS % cell toxicity: 0%
[5]; [21]
  inhibition at 10 µM: 7%

## CC(CCc1ccccc1)NC(C)C(O)c1ccc(O)cc1 (stereo not drawn) [Nylidrin hydrochloride, reference compound]
[1]; Table 2, screen at 10 μM
  Quadrant (FIG. 5b): Q4
[1]; Table 7, fib = fibrin, LPS, tox = toxicity
  Activity: fib/LPS
[1]; [6]
  Quadrant (FIG. 5b): Q4
[2]; Rattus norvegicus, Microglia, Table 7, read-out: fib_IC50
  IC50: 2 nM
[2]; [7]
  inhibition at 10 µM: 6%
[3]; [8]
  Fibrin % cell toxicity: 0%
[4]; [9]
  LPS % cell toxicity: 1%
[5]; [10]
  inhibition at 10 µM: 24%
[5]; Rattus norvegicus, Microglia, Table 7, read-out: LPS_IC50
  IC50: 7 nM

## CCC(=O)O[C@H](CC(=O)O)C[N+](C)(C)C [Levocarnitine Propionate Hydrochloride]
[1]; [6]
  Quadrant (FIG. 5b): Q4
[2]; [18]
  inhibition at 10 µM: -16%
[3]; [19]
  Fibrin % cell toxicity: 1%
[4]; [20]
  LPS % cell toxicity: 1%
[5]; [21]
  inhibition at 10 µM: 12%

## CC(C)NCC(O)COc1ccc(COCCOC(C)C)cc1 (stereo not drawn) [Bisoprolol]
[1]; primary HTS, 10 μM
  Quadrant (FIG. 5b): Q4
[2]; [22]
  inhibition at 10 µM: 1%
[3]; [23]
  Fibrin % cell toxicity: 0%
[4]; [24]
  LPS % cell toxicity: 0%
[5]; [25]
  inhibition at 10 µM: 13%

## Colistin Sulfate
[1]; [6]
  Quadrant (FIG. 5b): Q1
[2]; [26]
  Fibrin % inhibition: 19%
[3]; [8]
  Fibrin % cell toxicity: 1%
[4]; [9]
  LPS % cell toxicity: 1%
[5]; [27]
  LPS % inhibition: 58%

## Cc1cc2nc3ccc(N(C)C)cc3[s+]c2cc1N [Tolonium Chloride]
[1]; [11]
  Quadrant (FIG. 5b): Q4
[2]; [16]
  inhibition at 10 µM: -4%
[3]; [13]
  Fibrin % cell toxicity: 1%
[4]; [14]
  LPS % cell toxicity: 1%
[5]; [17]
  inhibition at 10 µM: 43%

## COc1cc(/C=C/C(N)=O)cc(OC)c1OC [Cintriamide]
[1]; primary HTS, 10 μM
  Quadrant (FIG. 5b): Q4
[2]; [22]
  inhibition at 10 µM: -2%
[3]; [23]
  Fibrin % cell toxicity: 1%
[4]; [24]
  LPS % cell toxicity: 0%
[5]; [25]
  inhibition at 10 µM: 15%

## C[CH2][Hg][S]c1ccccc1C(=O)O [Ethylmercurithiosalicylic acid]
[1]; [6]
  Quadrant (FIG. 5b): Q2
[2]; [26]
  Fibrin % inhibition: 109%
[3]; [8]
  Fibrin % cell toxicity: 92%
[4]; [9]
  LPS % cell toxicity: 95%
[5]; [27]
  LPS % inhibition: 127%

## COc1cc(NS(=O)(=O)c2ccc(N)cc2)nc(OC)n1 [Sulfadimethoxine]
[1]; [11]
  Quadrant (FIG. 5b): Q4
[2]; [16]
  inhibition at 10 µM: 42%
[3]; [13]
  Fibrin % cell toxicity: 1%
[4]; [14]
  LPS % cell toxicity: 0%
[5]; [17]
  inhibition at 10 µM: 13%

## O=C(O[C@H]1C[C@H]2CC[C@@H](C1)[N+]21CCCC1)C(O)(c1ccccc1)c1ccccc1 [Trospium Chloride]
[1]; [11]
  Quadrant (FIG. 5b): Q4
[2]; [16]
  inhibition at 10 µM: -39%
[3]; [13]
  Fibrin % cell toxicity: 0%
[4]; [14]
  LPS % cell toxicity: 1%
[5]; [17]
  inhibition at 10 µM: 9%

## Nc1nc2c(c(=O)[nH]1)N(C=O)C(CNc1ccc(C(=O)N[C@@H](CCC(=O)O)C(=O)O)cc1)CN2 (stereo partly drawn) [Leucovorin]
[1]; [6]
  Quadrant (FIG. 5b): Q4
[2]; [18]
  inhibition at 10 µM: -29%
[3]; [19]
  Fibrin % cell toxicity: 1%
[4]; [20]
  LPS % cell toxicity: 0%
[5]; [21]
  inhibition at 10 µM: 8%

## CC1(C)O[C@@H]2C[C@H]3[C@@H]4CCC5=CC(=O)C=C[C@]5(C)[C@H]4[C@@H](O)C[C@]3(C)[C@]2(C(=O)CO)O1 [Desonide]
[1]; [6]
  Quadrant (FIG. 5b): Q2
[2]; [7]
  inhibition at 10 µM: 108%
[3]; [8]
  Fibrin % cell toxicity: 17%
[4]; [9]
  LPS % cell toxicity: 5%
[5]; [10]
  inhibition at 10 µM: 112%
